According to US11154513B2, “Semifluorinated compounds” (NOVALIQ GMBH, priority 2015, dated 2021):
Where two headings read alike, the source gives them in different places.

Tests used:
[1] = tested on: Rabbit corneas
Description: Anim., 2008 (36) p 25-32; and N. Schrage et al, Graefes Arch Clin Exp Ophthalmol 2012 (250), 1330-1340).
Method. Rabbit corneas were obtained and placed in an artificial anterior ocular chamber which was gently filled with serum-free minimal essential medium (Eagle's MEM) containing Earle's salts and HEPES buffer for nutrition. The medium was constantly replenished by a micropump to imitate the physiological condition of the eye. The culture chambers were held at 32° C. under normal air without supplementary CO2 and >95% relative humidity. Five corneas per test substance (n=5) were used except for the positive control with which two corneas (n=2) were tested.
After 12 h of stabilization in the culture chamber, the corneas were evaluated by microscopy and corneas with intact epithelium and without opacities were selected. Four small abrasions (2.3-4.3 mm^2) were applied to the surface of the selected corneas with a cornea drill. All defects were monitored by fluorescein sodium staining (0.17% aq. solution) and microscopy.
The test substances were administered one hour after induction of the corneal erosion and were applied six times daily onto the apex of the corneas (30-50 μL every four hours). A soft-tipped cannula, with continuous suction was placed on the lowest part of the corneoscleral region within the culturing chamber to remove any excess fluid. Experiments were terminated after 3 days of application. Biomicroscopic images of the corneas were taken daily to document the corneal healing process using a phase-contrast microscope integrated camera (KY-F1030U, JVC, (Bad Vilbel, Del.) mounted on a Z16 APO Microscope (Wetzlar, Del.)). All defects were monitored by fluorescein sodium stains (0.17% aq. solution) with yellow green fluorescence indicating the areas of epithelial defects. Erosion sizes were determined using a software tool of the microscope (DISKUS). At the end of the 3 days, the experiment was terminated and all corneas were fixed in 3.7% formaldehyde and stained with a hematoxylin-eosin dye for microscopic evaluation. To monitor the metabolic activity of the cornea, glucose and lactate concentrations were photometrically quantified in the outflow medium from the artificial anterior chambers.

[2] = Evaporation time of 10 μL droplet on glass surface; format: physicochemical; conditions: for effect of increased amount of the compound on evaporation time of the mixture: FIG. 1; for Evaporation time: 10 μL droplet, glass surface, room temperature; for Evaporation time / Relative Evaporation Time: F4H5 / CF3—(CF2)3—CH(CH3)—(CH2)2—CH3 mixtures; for Relative Evaporation Time: relative to Sample 1
Description: The evaporation time of mixtures of the semifluorinated alkane CF3(CF2)3(CH2)4CH3(F4H5) and CF3—(CF2)3—CH(CH3)—(CH2)2—CH3 was evaluated. A droplet of 10 μL volume of each mixture was placed on a glass surface at room temperature. Time until evaporation was recorded by video-monitoring.
The evaporation time of mixtures of the semifluorinated alkane CF3(CF2)5(CH2)7CH3(F6H8) and CF3(CF2)5—CH(CH3)—(CH2)5—CH3 was evaluated analogously.

[3] = Refractive index of the mixtures; format: physicochemical; conditions: mixture with the 1-perfluoroalkylalkane; FIG. 2, FIG. 3
Description: In a particularly preferred embodiment, the refractive index of the liquid solution is in the range of from about 1.30 to about 1.35 at 20° C., as determined by refractometer.
The refractive index of the mixtures was also determined. For topically applied ophthalmic compositions, the refractive index of the composition should preferably be similar, or adapted to that of the eye and lens, for instance as close to that of physiological tear fluid as possible. If the refractive index of a composition is not similar, when applied to the surface of the eye, a patient may experience blurring or impaired vision. It is observed, that the amount of the compound CF3(CF2)5—CH(CH3)—(CH2)5—CH3 or has an effect on refractive index.

[4] = Differential Scanning Calorimetry of mixtures
[5] = DSC heating rate 1° C./min, mixture with CF3(CF2)5(CH2)7CH3

Question: What does the source list for benzalkonium chloride [0.01% BAC]?
Answer: course of induced epithelial lesions [1]: progressive increase of the induced epithelial lesions; Corneal Erosion Size, Mean ([1]; Day 0): 11.57 mm^2; Corneal Erosion Size, Mean ([1]; Day 1, applied six times daily 30-50 μL): 5.91 mm^2; Corneal Erosion Size, Mean ([1]; Day 2, applied six times daily 30-50 μL): 8.74 mm^2; Corneal Erosion Size, Mean ([1]; Day 3, applied six times daily 30-50 μL): 17.46 mm^2

Question: What does the source list for `CCCC(C)C(F)(F)C(F)(F)C(F)(F)C(F)(F)F` (stereo not shown) [CF3—(CF2)3—CH(CH3)—(CH2)2—CH3, 2-Perfluorobutyl-pentane]?
Answer: effect of increased amount of the compound on evaporation time of the mixture [2]: increase the evaporation time; effect of increased content on refractive index of the mixture [3]: increasing refractive index value

Question: For `CCCCCCC(C)C(F)(F)C(F)(F)C(F)(F)C(F)(F)C(F)(F)C(F)(F)F` (stereo not shown) [CF3—(CF2)5—CH(CH3)—(CH2)5—CH3, 2-Perfluorohexyl-octane], which “effect of increased amount of the compound on evaporation time of the mixture” value [2] is on record?
Answer: significantly decreases the evaporation time

Question: What about the “effect of increased content on refractive index of the mixture” value [3] of the same molecule?
Answer: increasing refractive index value

Question: And the “effect on melting enthalpy” value ([4]; presence in a mixture of F6H8)?
Answer: decreased

Question: What about the “effect on melting temperature” value ([4]; presence in a mixture of F6H8) of the same molecule?
Answer: significant reduction

Question: For `CCCC(C)C(F)(F)C(F)(F)C(F)(F)C(F)(F)F` (stereo not shown) [Sample 3, CF3—(CF2)3—CH(CH3)—(CH2)2—CH3], which Evaporation time [2] is on record?
Answer: 322 s

Question: And the “Relative Evaporation Time” value [2]?
Answer: 1.064

Question: What does the source list for “CF3(CF2)5(CH2)7CH3 [0 wt % CF3—(CF2)5—CH(CH3)—(CH2)5—CH3]”?
Answer: Low temperature transition Endset [4, 5]: −38.32 °C; Low temperature transition Onset [4, 5]: −45.47 °C; Low temperature transition Peak [4, 5]: −40.37 °C; Low temperature transition ΔH [4, 5]: -0.69 J/g

Question: With `CCCCCC(F)(F)C(F)(F)C(F)(F)C(F)(F)F` [Sample 1, CF3(CF2)3(CH2)4CH3] as the molecule, how does the Evaporation time [2] read?
Answer: 304 s

Question: What about the “Relative Evaporation Time” value [2] of the same molecule?
Answer: 1.00
